Measured values published in patent US5463093A, “Palladium complexes and methods for using same in the treatment of tumors or Psoriasis” (priority 1993, dated 1995).
Entries after “also recorded” stand apart in the source; their conditions may differ.

Legend:
DNA (CT) = experiment: Cyclic voltammetry of charge interactions with DNA; format: biochemical
Protocol: 16, 1993. […] 18, 1993. […] 30, 1993.
The structures of these complexes, as shown in the Examples, were also studied by Fourier transform-infrared spectroscopy (FTIR).
The working electrode used a smile mercury drop, the reference electrode was Ag/AgCl wire in KCl solution housed behind a porous Vycor frit and the counter electrode was Ag/AgCl wire. A reversing scan was performed from either 0 or -0.3 Volt to -1.0 Volts at 20 μA or 100 μA sensitivity and a scan rate of 100 mv/sec. Before the reductase sample was run, 9.0 ml of acetate buffer background electrolyte at pH 5.0 was purged for 8 minutes by vigorous bubbling of nitrogen. The addition of each sample was followed by two minutes of nitrogen purging.
In this example, 1.0 ml of a 5 mg/ml DNA solution was added to 250 μl of a 0.12μ Poly-RC solution. […] This scan was run from 0 to -1.0 volts at 20 μA sensitivity.
The amount of energy transferred is calculated from the shift in the voltage and current coordinates in terms of the Nernst relation. This interpretation of shifts in electro-potential curves follows the interpretations of electrochemistry literature, e.g., Maloy, "Factors Affecting the Shape of Current Potential Curves," I. Chem. Ed., 60(4):285-289 (April 1983); Rieger, Electrochemistry, Prentice Hall (1987); and Riley et al., Principles of Electroanalytical Methods, John Wiley (1987).
FIG. 6A was run from 0 to -1.0 volts at 100 μA sensitivity, while Rigure 6B was run from -0.3 to -1.0 volts at 20 μA sensitivity.
Both scans were run from -0.3 to -1.0 volts at 20 μA sensitivity. […] Biochem, 51(1 and 2):221 (August 1993).

[1] = UV spectroscopy after air oxidation of the solution; format: physicochemical; conditions: ninety days of air oxidation of the solution; UV spectra
Excerpt: There is no UV peak. FIGS. 2B and 2C show ultraviolet spectra of Pd-Lipoic Acid Complex (Poly-RC) with a concentration of 2×10^-6 M in FIG. 2B and 10^-6 M in FIG. 2C. FIGS. 2D and 2E show ultraviolet absorbance spectra of oxidized Poly RC after ninety days of air oxidation of the solution (experiment conducted Jun 11, 1993). In FIGS. 2D and 2E, the concentration is 0.00012 M. In FIG. 2D, the spectrum is ended at 400.0 nm and 0.542 A, and a reference peak is at 289.0 nm and 0.75 A. In FIG. 2E, the spectrum is ended at 550.0 nm and 0.036 A, and a reference peak is at 396.0 nm and 0.553 A. FIG. 2F illustrates the absorbance spectra of Pd-lipoic acid complexes at varying ratios of palladium to lipoic acid at a Pd concentration of 5×10^-5 M. The ratios are 1 Pd: 1 lipoic=n 1, 1 Pd: 2 lipoic=n 2, and 1 Pd: 3 lipoic=n 3. […] The reference peak of B12 is at 361.2 nm and 0.042 A and the reference peak of B12 Ac is at 358.6 nm and 0.044 A.
After ninety days of air oxidation of the Poly-RC solution, an ultraviolet spectra was again obtained on the Shimadzu UV spectrophotometer. In both instances, a 1.2×10^-4 μ solution was employed. […] FIG. 2E illustrates the visible range of the Poly RC, in which range an inflection is estimated as occurring at 396 nm. These spectra showing a shift from the fresh Poly RC solution are consistent with the view that Poly RC is a redox complex.

tumors = experiment: Compassionate IND studies in tumor patients; format: in vivo, human; conditions: for liquefaction of carcinomas, adenocarcinomas, melanomas and metastases / shrinkage of carcinomas, adenocarcinomas, melanomas and metastases: patients
Excerpt: (§1) Data reporting therapeutic effects are best presented by independent institutional protocols. Compassionate Investigational New Drug studies in humans involving administration of the novel polynucleotide reductases were begun in November of 1992 and are presently ongoing.
However, the precise route of administration, dosage and frequency of administration is individualized for each patient and can vary over a wide range depending on the particular disease state being treated, the condition of the patient and the like.

[2] = test system: Brewer's yeast (Saccharomyces cerevisae) / Baker's yeast; experiment: Induction of new yeast form (cell morphology, phase microscopy); format: cell-based; conditions: Poly-R2 10^-7 M, 30 minutes at 28° C.
Protocol: Brewer's yeast (Saccharomyces cerevisae) was cultured in 2.0% malt extract and 2.0% sucrose.
The yeast was incubated for 30 minutes at 28° C. and examined under phase microscopy.

[3] = test system: metastatic lesions to the liver; conditions: patients with metastatic lesions to the liver
Excerpt: as §1

palladium-lipoic acid complex [Poly-RC]
charge interaction of Poly-RC with DNA (voltammetric wave) (DNA (CT); 250 μl of 0.12 M Poly-RC + 1.0 ml DNA 5 mg/ml, 0 to -1.0 volts, 20 μA): double peaked catalytic wave of Poly-RC was altered on the addition of DNA; also recorded: current had dropped and voltage had moved in the oxidative direction; also recorded: DNA oxidizes Poly-RC | redox state after air oxidation [1]: in the oxidative state | liquefaction of carcinomas, adenocarcinomas, melanomas and metastases (tumors): developing non-hemorrhagic central liquefaction | shrinkage of carcinomas, adenocarcinomas, melanomas and metastases (tumors): shrinking

thiamine salt of a palladium-lipoic acid complex [Poly-R2]
magnitude of voltammetric shifts with DNA (DNA (CT); Poly-R2 compared with Poly-RC): greater magnitude | reduction of DNA (DNA (CT); cyclic voltammetry): can reduce both DNA and RNA | loss of lipid droplets during giantization of yeast cells ([2]; FIG. 8B): lipid droplets are lost from the cell; also recorded: lipid drops are lost from the cell | altered cell morphology of yeast cells ([2]; phase microscopy): Large fiat cells were one kind of new variety; also recorded: altered cell morphology of yeast cells | enlargement of the liver [3]: no longer palpable | serum albumen levels [3]: return to normal | liquefaction of carcinomas, adenocarcinomas, melanomas and metastases (tumors): developing non-hemorrhagic central liquefaction | shrinkage of carcinomas, adenocarcinomas, melanomas and metastases (tumors): shrinking | reduction in tumor size (tumors; terminally ill patients, objective criteria): reduction in tumor size by objective criteria | relief of symptoms caused by various cancers (tumors; terminally ill patients, subjective): subjective relief of symptoms
